Results published in PubChem BioAssay (NCI).
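Exposure lasted 48 hours, with cells grown in 96-well plates and compounds tested at five concentrations. Here, GI50 denotes the concentration required for 50% inhibition of growth. TGI: concentration producing complete growth inhibition.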

Columns and labels:
Assay in all cases: NCI-60 cell line screen, 48 h
786-0 renal = test system: 786-0 renal
K-562 leukemia = test system: K-562 leukemia
LOX IMVI melanoma = test system: LOX IMVI melanoma
NCI-H23 lung = test system: NCI-H23 lung
RPMI-8226 leukemia = test system: RPMI-8226 leukemia
SF-295 CNS = test system: SF-295 CNS
DU-145 prostate = test system: DU-145 prostate
HCT-15 colon = test system: HCT-15 colon
NCI-H460 lung = test system: NCI-H460 lung
SK-MEL-2 melanoma = test system: SK-MEL-2 melanoma

SMILES | TGI (786-0 renal) [µM] | TGI (K-562 leukemia) [µM] | TGI (LOX IMVI melanoma) [µM] | TGI (NCI-H23 lung) [µM] | TGI (RPMI-8226 leukemia) [µM] | TGI (SF-295 CNS) [µM] | TGI (DU-145 prostate) [µM] | TGI (HCT-15 colon) [µM] | TGI (NCI-H460 lung) [µM] | TGI (SK-MEL-2 melanoma) [µM] | GI50 (SF-295 CNS) [µM] | GI50 (DU-145 prostate) [µM] | GI50 (HCT-15 colon) [µM] | GI50 (K-562 leukemia) [µM] | GI50 (LOX IMVI melanoma) [µM] | GI50 (NCI-H23 lung) [µM] | GI50 (NCI-H460 lung) [µM] | GI50 (RPMI-8226 leukemia) [µM] | GI50 (SK-MEL-2 melanoma) [µM]
COc1ccc(-c2cc(=O)c3cc(OC)ccc3[nH]2)cc1 | > 100 | > 100 | > 100 | > 100 | > 100 | > 100 |  |  |  |  |  |  |  |  |  |  |  |  | 
COC(=O)C1(C#N)C(C)(C)N=C(c2ccccc2)C12CCCCC2 (centres undefined) | > 100 | > 100 | > 100 | > 100 | > 100 | > 100 | > 100 | > 100 | > 100 | > 100 |  |  |  |  |  |  |  |  | 
O=C1CSC(c2ccccc2[N+](=O)[O-])N1c1ccc(-c2ccc(-n3c(-c4ccccc4)nc4ccccc4c3=O)cc2)cc1 (centres undefined) | > 100 | > 100 | > 100 |  | > 100 | > 100 | > 100 | > 100 | > 100 | > 100 |  |  |  |  |  |  |  |  | 
CCOC(=O)C1=NN(c2ccc([N+](=O)[O-])cc2)[C@@]2(C)C[C@]3(c4ccccc4)N(c4ccc([N+](=O)[O-])cc4)N=C(C(=O)OCC)N3c3ccccc3N12 | > 100 | > 100 | > 100 | > 100 | > 100 | > 100 | > 100 | > 100 |  | > 100 |  |  |  |  |  |  |  |  | 
Cc1cc(/C=C/c2cc[n+](C)c3ccccc23)c(O)c2ncccc12 | 14.3 | 13.7 | 12.3 | 4.86 | 6.41 | 15.5 |  | 49.8 | 16.7 | 18.8 |  |  |  |  |  |  |  |  | 
COc1cc(/C=N/n2c(-c3ccccc3)nn(C(C)=O)c2=O)cc(OC)c1OC | > 53.1 | > 100 | > 100 | > 49.4 | 9.59 | 26.9 | > 89.1 | > 100 | > 39.2 | 18.4 |  |  |  |  |  |  |  |  | 
COc1ccccc1-c1cc(=O)c2cc3c(cc2[nH]1)OCO3 | > 100 | > 100 | > 100 | > 100 | > 100 | 62.6 |  | > 100 | > 100 | > 100 | 21.1 |  |  |  |  |  |  |  | 
Cc1c(N2CCN(C)CC2)nc2ccc(Cl)cc2c1-c1ccccc1 | 27.9 | 35.7 | 28.3 | 55.4 | 44.9 | 31.2 |  | 40.7 | 33.4 | 36.5 |  |  |  |  |  |  |  |  | 
C=C(CCC/C(C)=C/C=C/[C@@H](C)CCCc1ccoc1)C[C@@H]1OC(=O)[C@H](C)[C@@H]1O | 31.5 | > 50 | 21.8 | 16.6 | 43.4 | 19.1 | 23.5 | 21.3 | 29.8 | 17.7 |  |  |  |  |  |  |  |  | 
N#Cc1c(-c2ccc(Cl)cc2)[nH]c(=O)n(C2OC(CO)C(O)C(O)C2O)c1=O (centres undefined) | > 100 | > 100 |  | > 100 | > 100 | > 100 | > 100 | > 100 | > 100 | > 100 |  |  |  |  |  |  |  |  | 
C/C(CC(O)(/C=N/O)c1ccccc1)=N/O (centres undefined) | > 100 | > 100 | > 100 | > 100 | > 100 | > 100 |  | > 100 | > 100 | > 100 |  |  |  |  |  |  |  |  | 
S=C1CCSc2c(ccc3ccccc23)N1 | > 100 | > 100 | > 100 | > 100 |  | > 100 | > 100 | > 100 | > 100 |  |  |  |  |  |  |  |  |  | 
N#CC(Cc1ccccc1)N(CCC1=CCCCC1)Cc1ccccc1 (centres undefined) | > 100 | > 100 |  | > 100 | 63.5 | > 100 | > 100 | > 100 | > 100 | > 100 |  |  |  |  |  |  |  |  | 
CC[C@@]1(C)CCC2c3ccc(O)cc3CC[C@H]2C1C (some centres undefined) | 29.8 | 23.3 | 31.9 | 36.2 | 39.5 | 34.6 | 30.4 | 31.4 | 40.6 | 32.8 |  |  |  |  |  |  |  |  | 
O=C(c1ccccc1)c1ccc2[nH]c(-c3c(Cl)c(Cl)c(Cl)c(Cl)c3C(=O)N/N=C/c3cccc(Oc4ccccc4)c3)nc2c1 | > 100 | > 100 | > 100 | > 100 | > 100 | > 100 | > 100 | > 100 |  | > 100 |  |  |  |  |  |  |  |  | 
COc1ccc(Cc2nnc(Nc3ccc(Br)cc3)[nH]c2=O)cc1OC | > 100 | > 100 | > 100 | > 100 | > 100 | > 100 | > 100 | > 100 | > 100 | > 100 |  |  |  |  |  |  |  |  | 
CSc1nc(NC2OC(COC(C)=O)C(OC(C)=O)C(OC(C)=O)C2OC(C)=O)c2c(n1)OCC2=O (centres undefined) | > 100 | > 100 | > 100 | > 100 | > 100 | > 100 |  | > 100 | > 100 | > 100 |  |  |  |  |  |  |  |  | 
CC(=O)Nc1c(C)cc2c(nc3n2CCC3OC(C)=O)c1[N+](=O)[O-] (centres undefined) | > 100 | > 100 | > 100 | > 100 | > 100 | > 100 | > 100 | > 100 | > 100 | > 100 |  |  |  |  |  |  |  |  | 
O=C(Nc1ccc(-n2ccc3c(NC(=O)c4ccccc4)ncnc32)cc1)Nc1ccc(Cl)c(Cl)c1 |  | 6.75 | 16.3 | 22.3 | 3.2 | 14.2 | 6.31 | 6.97 | 5.85 | 12.9 | 4.5 | 1.9 | 1.74 | 1.73 | 2.38 | 6.33 | 1.71 | 1.21 | 5.2
CC(C)NC(=O)OCc1c(CO)c2c(n1C)-c1ccccc1CC2 |  | 46 | 56.8 | > 65.1 | 49.4 | > 100 |  | 54.6 | 67.7 | > 100 |  |  |  |  |  |  |  |  | 
Cc1ccc(/C(O)=C/C(=O)C(=O)NC23CC4CC(CC(C4)C2)C3)cc1 | > 10 | > 10 | > 10 | > 10 | > 10 | > 10 | > 10 | > 10 |  |  |  |  |  |  |  |  |  |  | 
